Test results from ChEMBL document CHEMBL4616625, “The Medicinal Chemistry in the Era of Machines and Automation: Recent Advances in Continuous Flow Technology” (J Med Chem, 2020).

Columns and labels:
[1] = molecular target: T1, Alpha-1B adrenergic receptor (Homo sapiens, UniProt P35368); test: Inhibition of alpha1B adrenergic receptor (unknown origin)
T1 sequence (P35368 whole entry): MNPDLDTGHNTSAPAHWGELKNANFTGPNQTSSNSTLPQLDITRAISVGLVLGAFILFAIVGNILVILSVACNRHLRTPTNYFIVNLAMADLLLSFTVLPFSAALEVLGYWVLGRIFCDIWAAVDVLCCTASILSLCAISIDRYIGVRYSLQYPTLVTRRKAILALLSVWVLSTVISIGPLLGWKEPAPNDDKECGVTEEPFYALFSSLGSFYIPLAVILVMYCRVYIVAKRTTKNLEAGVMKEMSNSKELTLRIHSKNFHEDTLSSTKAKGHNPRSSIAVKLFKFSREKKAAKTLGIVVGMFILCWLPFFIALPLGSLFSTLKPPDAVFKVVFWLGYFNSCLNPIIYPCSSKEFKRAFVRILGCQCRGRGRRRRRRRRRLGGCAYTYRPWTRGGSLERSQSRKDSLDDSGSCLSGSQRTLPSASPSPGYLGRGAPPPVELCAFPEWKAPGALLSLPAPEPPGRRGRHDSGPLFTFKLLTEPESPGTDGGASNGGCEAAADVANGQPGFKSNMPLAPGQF

[2] = molecular target: Albumin (Homo sapiens, UniProt P02768); test: Binding affinity to albumin (unknown origin); format: ADME
Albumin, sequence (P02768 whole entry): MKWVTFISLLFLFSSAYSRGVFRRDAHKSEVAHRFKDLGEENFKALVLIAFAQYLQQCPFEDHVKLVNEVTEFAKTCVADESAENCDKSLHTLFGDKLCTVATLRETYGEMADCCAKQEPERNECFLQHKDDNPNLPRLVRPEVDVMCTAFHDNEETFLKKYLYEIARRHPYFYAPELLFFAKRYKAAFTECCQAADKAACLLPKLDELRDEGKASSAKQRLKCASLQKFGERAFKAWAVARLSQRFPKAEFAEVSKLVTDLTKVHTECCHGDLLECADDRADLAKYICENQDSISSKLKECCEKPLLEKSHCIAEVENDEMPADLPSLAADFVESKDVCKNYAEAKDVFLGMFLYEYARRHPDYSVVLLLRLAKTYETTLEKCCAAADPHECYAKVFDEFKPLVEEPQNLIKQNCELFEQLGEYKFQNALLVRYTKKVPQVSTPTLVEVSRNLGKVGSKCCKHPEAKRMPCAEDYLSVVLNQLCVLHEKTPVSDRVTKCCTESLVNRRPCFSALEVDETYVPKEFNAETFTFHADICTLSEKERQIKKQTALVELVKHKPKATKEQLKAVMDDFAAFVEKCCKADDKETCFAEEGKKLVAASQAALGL

SMILES | Ki [1] [nM] | Kd [2] [nM]
COc1ccc(-c2nc3ccccn3c2NCCN2CCOCC2)c(OC)c1 | 2000 | 
CCCN(CCC)C(=O)Cc1c(-c2ccc(Cl)cc2)nc2ccc(Cl)cn12 [ALPIDEM] |  | 2000
Cc1ccc(-c2nc3ccc(C)cn3c2CC(=O)N(C)C)cc1 [ZOLPIDEM] |  | 63000
